Source: US12552825B2 (Zikani Therapeutics, Inc., priority 2019, dated 2026)
≈ marks a conversion by molar mass, not a printed value.

Key:
Type in all cases: cell-based
A. baumannii MP-15 = assay: MIC determination by CLSI broth dilution, A. baumannii MP-15; conditions: Acinetobacter baumannii, MP15, strain MP-15, read-out: MIC A. baumanii MP-15
E. coli MP-4 = assay: MIC determination by CLSI broth dilution, E. coli MP-4; conditions: strain MP-4; for MIC: Escherichia coli, MP4, CLSI broth dilution
K. pneumoniae MP-648 = assay: MIC determination by CLSI broth dilution, K. pneumoniae MP-648; conditions: strain MP-648; for MIC: Klebsiella pneumoniae, MP648, CLSI broth dilution
P. aeruginosa MP-3 = assay: MIC determination by CLSI broth dilution, P. aeruginosa MP-3; conditions: Pseudomonas aeruginosa, MP3, strain MP-3
S. aureus MP-12 = assay: microbe, parasite or virus in culture; conditions: Staphylococcus aureus, MP12, read-out: MIC S. aureus MP-12
K. pneumoniae MP-546 = assay: MIC determination by CLSI broth dilution, K. pneumoniae MP-546; conditions: strain MP-546; for MIC: Klebsiella pneumoniae, MP546, CLSI broth dilution

| Compound | MIC (A. baumannii MP-15) [µg/mL] | MIC (E. coli MP-4) [µg/mL] | MIC (K. pneumoniae MP-648) [µg/mL] | MIC (P. aeruginosa MP-3) [µg/mL] | MIC (S. aureus MP-12) [µg/mL] | MIC (K. pneumoniae MP-546) [µg/mL] | MIC E. coli MP-4 (E. coli MP-4; CLSI broth dilution) | MIC K. pneumoniae MP-648 (K. pneumoniae MP-648; CLSI broth dilution) | MIC K. pneumoniae MP-546 (K. pneumoniae MP-546; CLSI broth dilution) |
| --- | --- | --- | --- | --- | --- | --- | --- | --- | --- |
| CCCN1C[C@H](C)C[C@@](C)(OC)[C@H](O[C@@H]2O[C@H](C)C[C@H](N(C)C)[C@H]2O)[C@@H](C)C(=O)C(C)(C)C(=O)OC[C@@H]1CCCN(C)C(C)C [Compound 18, (3S,6R,8R,9R,10R)-9-(((2S,3R,4S,6R)-4-(dimethylamino)-3-hydroxy-6-methyltetrahydro-2H-pyran-2-yl)oxy)-3-(3-(isopropyl(methyl)amino)propyl)-8-methoxy-6,8,10,12,12-pentamethyl-4-propyl-1-oxa-4-azacyclotridecane-11,13-dione] | > 32 | < 4 | < 4 | > 32 | < 4 | < 4 | – | – | – |
| CCCN1C[C@H](C)C[C@@](C)(OC)[C@H](O[C@@H]2O[C@H](C)C[C@H](N(C)C)[C@H]2O)[C@@H](C)C(=O)C(C)(C)C(=O)OC[C@H]1CCCN(C)C [Compound 21, (3R,6R,8R,9R,10R)-9-(((2S,3R,4S,6R)-4-(dimethylamino)-3-hydroxy-6-methyltetrahydro-2H-pyran-2-yl)oxy)-3-(3-(dimethylamino)propyl)-8-methoxy-6,8,10,12,12-pentamethyl-4-propyl-1-oxa-4-azacyclotridecane-11,13-dione] | > 32 | < 4 | < 4 | < 4 | 4 to 32 (≈ 6.52 to 52.1 µM) | < 4 | – | – | – |
| CCCCCCCN1CCC([C@@H](O)[C@H]2COC(=O)C(C)(C)C(=O)[C@H](C)[C@@H](O[C@@H]3O[C@H](C)C[C@H](N(C)C)[C@H]3O)[C@](C)(OC)C[C@@H](C)CN2C)CC1 [Compound 22] | > 32 | < 4 | > 32 | > 32 | > 32 | 4 to 32 (≈ 5.62 to 44.9 µM) | – | – | – |
| CO[C@]1(C)C[C@@H](C)CN(C)[C@@H]([C@H](O)C2CCN(CC3CC3)CC2)COC(=O)C(C)(C)C(=O)[C@H](C)[C@H]1O[C@@H]1O[C@H](C)C[C@H](N(C)C)[C@H]1O [Compound 23, (3R,6R,8R,9R,10R)-3-((R)-(1-(cyclopropylmethyl)piperidin-4-yl)(hydroxy)methyl)-9-(((2S,3R,4S,6R)-4-(dimethylamino)-3-hydroxy-6-methyltetrahydro-2H-pyran-2-yl)oxy)-8-methoxy-4,6,8,10,12,12-hexamethyl-1-oxa-4-azacyclotridecane-11,13-dione] | > 32 | 4 to 32 (≈ 5.99 to 47.9 µM) | 4 to 32 (≈ 5.99 to 47.9 µM) | > 32 | 4 to 32 (≈ 5.99 to 47.9 µM) | 4 to 32 (≈ 5.99 to 47.9 µM) | – | – | – |
| CCCN1CCC([C@@H](O)[C@H]2COC(=O)C(C)(C)C(=O)[C@H](C)[C@@H](O[C@@H]3O[C@H](C)C[C@H](N(C)C)[C@H]3O)[C@](C)(OC)C[C@@H](C)CN2C)CC1 [Compound 24] | > 32 | 4 to 32 (≈ 6.1 to 48.8 µM) | > 32 | > 32 | 4 to 32 (≈ 6.1 to 48.8 µM) | 4 to 32 (≈ 6.1 to 48.8 µM) | – | – | – |
| CO[C@]1(C)C[C@@H](C)CN(C)[C@@H]([C@H](O)C2CCN(CC3CCCCC3)CC2)COC(=O)C(C)(C)C(=O)[C@H](C)[C@H]1O[C@@H]1O[C@H](C)C[C@H](N(C)C)[C@H]1O [Compound 25] | > 32 | < 4 | 4 to 32 (≈ 5.63 to 45.1 µM) | > 32 | > 32 | 4 to 32 (≈ 5.63 to 45.1 µM) | – | – | – |
| CO[C@]1(C)C[C@@H](C)CN(C)[C@H]([C@@H](O)C2CCN(CC3CC3)CC2)COC(=O)C(C)(C)C(=O)[C@H](C)[C@H]1O[C@@H]1O[C@H](C)C[C@H](N(C)C)[C@H]1O [Compound 26] | > 32 | – | – | > 32 | > 32 | – | +++ (values less than or equal to 4 mg/L) | ++ (values of greater than 4 mg/L and less than or equal to 32 mg/L) | ++ (values of greater than 4 mg/L and less than or equal to 32 mg/L) |
| CO[C@]1(C)C[C@@H](C)CN(C)[C@H]([C@@H](O)C2CCN(C(C)C)CC2)COC(=O)C(C)(C)C(=O)[C@H](C)[C@H]1O[C@@H]1O[C@H](C)C[C@H](N(C)C)[C@H]1O [Compound 27] | > 32 | 4 to 32 (≈ 6.1 to 48.8 µM) | > 32 | > 32 | > 32 | 4 to 32 (≈ 6.1 to 48.8 µM) | – | – | – |
| COCO[C@@H](C1CCN(CC2CC2)CC1)[C@@H]1COC(=O)C(C)(C)C(=O)[C@H](C)[C@@H](O[C@@H]2O[C@H](C)C[C@H](N(C)C)[C@H]2O)[C@](C)(OC)C[C@@H](C)CN1C [Compound 29] | > 32 | 4 to 32 (≈ 5.62 to 44.9 µM) | > 32 | > 32 | 4 to 32 (≈ 5.62 to 44.9 µM) | > 32 | – | – | – |
| COCCCN1CCC(C[C@@H]2COC(=O)C(C)(C)C(=O)[C@H](C)[C@@H](O[C@@H]3O[C@H](C)C[C@H](N(C)C)[C@H]3O)[C@](C)(OC)C[C@@H](C)CN2C)CC1 [Compound 50] | > 32 | < 4 | < 4 | > 32 | 4 to 32 (≈ 5.97 to 47.8 µM) | < 4 | – | – | – |
| CO[C@]1(C)C[C@@H](C)CN(C)[C@H](CC2CCNCC2)COC(=O)C(C)(C)C(=O)[C@H](C)[C@H]1O[C@@H]1O[C@H](C)C[C@H](N(C)C)[C@H]1O [Compound 51] | > 32 | 4 to 32 (≈ 6.69 to 53.5 µM) | > 32 | > 32 | > 32 | > 32 | – | – | – |
| CO[C@]1(C)C[C@@H](C)CN(C)[C@H](CC2CCN(C(C)C)CC2)COC(=O)C(C)(C)C(=O)[C@H](C)[C@H]1O[C@@H]1O[C@H](C)C[C@H](N(C)C)[C@H]1O [Compound 52] | > 32 | < 4 | 4 to 32 (≈ 6.25 to 50 µM) | > 32 | 4 to 32 (≈ 6.25 to 50 µM) | < 4 | – | – | – |
| CCC(CCNCC(C)C)C[C@@H]1COC(=O)C(C)(C)C(=O)[C@H](C)[C@@H](O[C@@H]2O[C@H](C)C[C@H](N(C)C)[C@H]2O)[C@](C)(OC)C[C@@H](C)CN1C (stereo partly drawn) [Compound 53] | > 32 | < 4 | < 4 | > 32 | 4 to 32 (≈ 6.1 to 48.8 µM) | < 4 | – | – | – |
| CO[C@]1(C)C[C@@H](C)CN(C)[C@H](CC2CCN(CC3CCCCC3)CC2)COC(=O)C(C)(C)C(=O)[C@H](C)[C@H]1O[C@@H]1O[C@H](C)C[C@H](N(C)C)[C@H]1O [Compound 55] | > 32 | < 4 | < 4 | > 32 | 4 to 32 (≈ 5.76 to 46.1 µM) | < 4 | – | – | – |
| CCCCCCCN1CCC(C[C@@H]2COC(=O)C(C)(C)C(=O)[C@H](C)[C@@H](O[C@@H]3O[C@H](C)C[C@H](N(C)C)[C@H]3O)[C@](C)(OC)C[C@@H](C)CN2C)CC1 [Compound 56] | > 32 | < 4 | < 4 | > 32 | 4 to 32 (≈ 5.75 to 46 µM) | < 4 | – | – | – |
| CO[C@]1(C)C[C@@H](C)CN(C)[C@H](CC2CCN(CC3CC3)CC2)COC(=O)C(C)(C)C(=O)[C@H](C)[C@H]1O[C@@H]1O[C@H](C)C[C@H](N(C)C)[C@H]1O [Compound 57] | > 32 | < 4 | < 4 | > 32 | 4 to 32 (≈ 6.14 to 49.1 µM) | < 4 | – | – | – |
| CCC(CC)CN1CCC(C[C@@H]2COC(=O)C(C)(C)C(=O)[C@H](C)[C@@H](O[C@@H]3O[C@H](C)C[C@H](N(C)C)[C@H]3O)[C@](C)(OC)C[C@@H](C)CN2C)CC1 [Compound 58] | > 32 | < 4 | < 4 | > 32 | 4 to 32 (≈ 5.87 to 46.9 µM) | < 4 | – | – | – |
| CCCN1CC=C(C[C@@H]2COC(=O)C(C)(C)C(=O)[C@H](C)[C@@H](O[C@@H]3O[C@H](C)C[C@H](N(C)C)[C@H]3O)[C@](C)(OC)C[C@@H](C)CN2C)CC1 [Compound 59] | > 32 | < 4 | 4 to 32 (≈ 6.27 to 50.2 µM) | > 32 | < 4 | < 4 | – | – | – |
| CO[C@]1(C)C[C@@H](C)CN(C)[C@H](CC2CCN(C3CCCC3)CC2)COC(=O)C(C)(C)C(=O)[C@H](C)[C@H]1O[C@@H]1O[C@H](C)C[C@H](N(C)C)[C@H]1O [Compound 60] | > 32 | < 4 | < 4 | > 32 | 4 to 32 (≈ 6.01 to 48.1 µM) | < 4 | – | – | – |
| CO[C@]1(C)C[C@@H](C)CN(C)[C@H](CC2CCN(Cc3ccncc3)CC2)COC(=O)C(C)(C)C(=O)[C@H](C)[C@H]1O[C@@H]1O[C@H](C)C[C@H](N(C)C)[C@H]1O [Compound 61] | > 32 | < 4 | 4 to 32 (≈ 5.81 to 46.4 µM) | > 32 | 4 to 32 (≈ 5.81 to 46.4 µM) | 4 to 32 (≈ 5.81 to 46.4 µM) | – | – | – |
| CO[C@]1(C)C[C@@H](C)CN(C)[C@H](CC2CCN(Cc3ccco3)CC2)COC(=O)C(C)(C)C(=O)[C@H](C)[C@H]1O[C@@H]1O[C@H](C)C[C@H](N(C)C)[C@H]1O [Compound 62] | 4 to 32 (≈ 5.9 to 47.2 µM) | < 4 | < 4 | > 32 | 4 to 32 (≈ 5.9 to 47.2 µM) | < 4 | – | – | – |
| CO[C@]1(C)C[C@@H](C)CN(C)[C@H](CC2CCN(C3CC3)CC2)COC(=O)C(C)(C)C(=O)[C@H](C)[C@H]1O[C@@H]1O[C@H](C)C[C@H](N(C)C)[C@H]1O [Compound 63] | > 32 | < 4 | 4 to 32 (≈ 6.27 to 50.2 µM) | > 32 | 4 to 32 (≈ 6.27 to 50.2 µM) | < 4 | – | – | – |
| CO[C@]1(C)C[C@@H](C)CN(C)[C@H](CC2CCN(C=O)CC2)COC(=O)C(C)(C)C(=O)[C@H](C)[C@H]1O[C@@H]1O[C@H](C)C[C@H](N(C)C)[C@H]1O [Compound 64] | > 32 | > 32 | > 32 | > 32 | > 32 | > 32 | – | – | – |
| COC(CN1CCC(C[C@@H]2COC(=O)C(C)(C)C(=O)[C@H](C)[C@@H](O[C@@H]3O[C@H](C)C[C@H](N(C)C)[C@H]3O)[C@](C)(OC)C[C@@H](C)CN2C)CC1)OC [Compound 65] | > 32 | < 4 | 4 to 32 (≈ 5.83 to 46.7 µM) | > 32 | 4 to 32 (≈ 5.83 to 46.7 µM) | < 4 | – | – | – |
